Calls of active or inactive are those of the source. The calls are words filed in the database; no cut-off is given here.
What was measured:
[1] = Growth inhibition of human RXF393 cells after 48 hrs by SRB assay; assay type: functional; conditions: RXF 393, 48 h
M14 = experiment: Growth inhibition of human M14 cells after 48 hrs by SRB assay; assay type: functional; conditions: M14, 48 h
Malme-3M = experiment: Growth inhibition of human MALME-3M cells after 48 hrs by SRB assay; assay type: functional
SR = experiment: Growth inhibition of human SR cells after 48 hrs by SRB assay; assay type: functional
K562 = experiment: Growth inhibition of human K562 cells after 48 hrs by SRB assay; assay type: functional; conditions: K562, 48 h
MDA-MB-468 = experiment: Growth inhibition of human MDA-MB-468 cells after 48 hrs by SRB assay; assay type: functional; conditions: MDA-MB-468, 48 h
MDA-MB-435 = experiment: Growth inhibition of human MDA-MB-435 cells after 48 hrs by SRB assay; assay type: functional; conditions: MDA-MB-435, 48 h
[2] = Growth inhibition of human LOXIMVI cells after 48 hrs by SRB assay; assay type: functional; conditions: LOX IMVI
RPMI-8226 = experiment: Growth inhibition of human RPMI8226 cells after 48 hrs by SRB assay; assay type: functional; conditions: RPMI-8226, 48 h
SNB-19 = experiment: Growth inhibition of human SNB19 cells after 48 hrs by SRB assay; assay type: functional; conditions: SNB-19, 48 h
[3] = Growth inhibition of human OVCAR5 cells after 48 hrs by SRB assay; assay type: functional; conditions: OVCAR-5, 48 h
KM12 = experiment: Growth inhibition of human KM12 cells after 48 hrs by SRB assay; assay type: functional; conditions: KM12, 48 h
NCI-H226 = experiment: Growth inhibition of human NCI-H226 cells after 48 hrs by SRB assay; assay type: functional; conditions: NCI-H226, 48 h
[4] = Growth inhibition of human HCC2998 cells after 48 hrs by SRB assay; assay type: functional; conditions: HCC 2998, 48 h
HT-29 = experiment: Growth inhibition of human HT-29 cells after 48 hrs by SRB assay; assay type: functional; conditions: HT-29, 48 h
T47D = experiment: Growth inhibition of human T47D cells after 48 hrs by SRB assay; assay type: functional
CCRF-CEM = experiment: Growth inhibition of human CCRF-CEM cells after 48 hrs by SRB assay; assay type: functional
[5] = Growth inhibition of human UACC257 cells after 48 hrs by SRB assay; assay type: functional; conditions: UACC-257, 48 h
NCI-H322M = experiment: Growth inhibition of human NCI-H322M cells after 48 hrs by SRB assay; assay type: functional
[6] = Growth inhibition of human MOLT4 cells after 48 hrs by SRB assay; assay type: functional; conditions: MOLT-4, 48 h
IGROV-1 = experiment: Growth inhibition of human IGROV1 cells after 48 hrs by SRB assay; assay type: functional; conditions: IGROV-1, 48 h
NCI-H23 = experiment: Growth inhibition of human NCI-H23 cells after 48 hrs by SRB assay; assay type: functional; conditions: NCI-H23, 48 h
[7] = Growth inhibition of human BT549 cells after 48 hrs by SRB assay; assay type: functional; conditions: BT-549, 48 h
MCF7 [8] = experiment: Growth inhibition of human MCF7 cells after 48 hrs by SRB assay; assay type: functional; conditions: MCF7, 48 h
SK-MEL-5 = experiment: Growth inhibition of human SK-MEL-5 cells after 48 hrs by SRB assay; assay type: functional; conditions: SK-MEL-5, 48 h
CAKI-1 = experiment: Growth inhibition of human Caki1 cells after 48 hrs by SRB assay; assay type: functional; conditions: CAKI-1, 48 h
[9] = Growth inhibition of human OVCAR3 cells after 48 hrs by SRB assay; assay type: functional; conditions: OVCAR-3, 48 h
HL-60(TB) = experiment: Growth inhibition of human HL-60(TB) cells after 48 hrs by SRB assay; assay type: functional; conditions: HL-60, 48 h
[10] = Growth inhibition of human UACC62 cells after 48 hrs by SRB assay; assay type: functional; conditions: UACC-62, 48 h
TK-10 = experiment: Growth inhibition of human TK10 cells after 48 hrs by SRB assay; assay type: functional; conditions: TK-10, 48 h
ACHN = experiment: Growth inhibition of human ACHN cells after 48 hrs by SRB assay; assay type: functional
[11] = Growth inhibition of human EKVX cells after 48 hrs by SRB assay; assay type: functional
MCF7 [12] = experiment: Growth inhibition of human MCF7 cells assessed as cell viability at 4 uM after 24 hrs by MTT assay; assay type: functional, cell-based
[13] = Growth inhibition of human OVCAR8 cells after 48 hrs by SRB assay; assay type: functional; conditions: OVCAR-8, 48 h
[14] = Growth inhibition of human HCT15 cells after 48 hrs by SRB assay; assay type: functional; conditions: HCT-15, 48 h
MCF7 [15] = experiment: Cell cycle arrest in human MCF7 cells assessed as accumulation at S phase at 4 uM after 24 hrs by propidium iodide staining-based flow cytometry (reference value: 20.17%); assay type: functional
SK-MEL-2 = experiment: Growth inhibition of human SK-MEL-2 cells after 48 hrs by SRB assay; assay type: functional; conditions: SK-MEL-2, 48 h
DU-145 = experiment: Growth inhibition of human DU145 cells after 48 hrs by SRB assay; assay type: functional; conditions: DU-145, 48 h
SF-268 = experiment: Growth inhibition of human SF268 cells after 48 hrs by SRB assay; assay type: functional; conditions: SF-268, 48 h
PC-3 = experiment: Growth inhibition of human PC3 cells after 48 hrs by SRB assay; assay type: functional; conditions: PC-3, 48 h
U-251 = experiment: Growth inhibition of human U251 cells after 48 hrs by SRB assay; assay type: functional; conditions: U-251, 48 h
COLO 205 = experiment: Growth inhibition of human COLO205 cells after 48 hrs by SRB assay; assay type: functional; conditions: COLO 205, 48 h
[16] = Growth inhibition of human SF295 cells after 48 hrs by SRB assay; assay type: functional; conditions: SF-295, 48 h
HOP-62 = experiment: Growth inhibition of human HOP62 cells after 48 hrs by SRB assay; assay type: functional; conditions: HOP-62, 48 h
[17] = Growth inhibition of human SF539 cells after 48 hrs by SRB assay; assay type: functional; conditions: SF-539, 48 h
A549 = experiment: Growth inhibition of human A549 cells after 48 hrs by SRB assay; assay type: functional; conditions: A549, 48 h
MCF7 [18] = experiment: Cell cycle arrest in human MCF7 cells assessed as accumulation at G2/M phase at 4 uM after 24 hrs by propidium iodide staining-based flow cytometry (reference value: 15.79%); assay type: functional
[19] = Growth inhibition of human UO31 cells after 48 hrs by SRB assay; assay type: functional; conditions: UO-31, 48 h
SW-620 = experiment: Growth inhibition of human SW620 cells after 48 hrs by SRB assay; assay type: functional; conditions: SW-620, 48 h
NCI-H460 = experiment: Growth inhibition of human NCI-H460 cells after 48 hrs by SRB assay; assay type: functional; conditions: NCI-H460, 48 h
SK-OV-3 = experiment: Growth inhibition of human SKOV3 cells after 48 hrs by SRB assay; assay type: functional; conditions: SK-OV-3, 48 h
[20] = Growth inhibition of human HOP92 cells after 48 hrs by SRB assay; assay type: functional; conditions: HOP-92, 48 h
SNB-75 = experiment: Growth inhibition of human SNB75 cells after 48 hrs by SRB assay; assay type: functional; conditions: SNB-75, 48 h
HCT-116 = experiment: Growth inhibition of human HCT116 cells after 48 hrs by SRB assay; assay type: functional; conditions: HCT-116, 48 h
786-0 = experiment: Growth inhibition of human 786-0 cells after 48 hrs by SRB assay; assay type: functional; conditions: 786-0, 48 h
A498 = experiment: Growth inhibition of human A498 cells after 48 hrs by SRB assay; assay type: functional; conditions: A498, 48 h
[21] = Growth inhibition of human OVCAR4 cells after 48 hrs by SRB assay; assay type: functional; conditions: OVCAR-4, 48 h
MCF7 [22] = experiment: Cell cycle arrest in human MCF7 cells assessed as accumulation at G0/G1 phase at 4 uM after 24 hrs by propidium iodide staining-based flow cytometry (reference value: 64.04%); assay type: functional
SK-MEL-28 = experiment: Growth inhibition of human SK-MEL-28 cells after 48 hrs by SRB assay; assay type: functional; conditions: SK-MEL-28, 48 h
[23] = Growth inhibition of human Hs578T cells after 48 hrs by SRB assay; assay type: functional; conditions: Hs-578T
SN12C = experiment: Growth inhibition of human SN12C cells after 48 hrs by SRB assay; assay type: functional
NCI-H522 = experiment: Growth inhibition of human NCI-H522 cells after 48 hrs by SRB assay; assay type: functional; conditions: NCI-H522, 48 h
[24] = Growth inhibition of human NCI-ADR-RES cells after 48 hrs by SRB assay; assay type: functional
MDA-MB-231 = experiment: Growth inhibition of human MDA-MB-231 cells after 48 hrs by SRB assay; assay type: functional; conditions: MDA-MB-231, 48 h

Molecule `COc1ccc(-c2nc3ncccn3c2/C=C/C(=O)c2cc(OC)c(OC)c(OC)c2)cc1` has a GI50 [1] of 1110 nM, a GI50 (M14) of 1530 nM and a GI50 (Malme-3M) of 1810 nM. For the same molecule, the GI50 (SR) was 1530 nM, the GI50 (K562) was 2630 nM and the GI50 (MDA-MB-468) was 1810 nM. The GI50 (MDA-MB-435) was 2280 nM, the GI50 [2] was 1460 nM and the GI50 (RPMI-8226) was 2210 nM. It also gave a GI50 (SNB-19) of 3010 nM, a GI50 [3] of 1530 nM and a GI50 (KM12) of 1610 nM. The GI50 (NCI-H226) was 2280 nM, the GI50 [4] was 1580 nM and the GI50 (HT-29) was 2190 nM. It also gave a GI50 (T47D) of 2530 nM, a GI50 (CCRF-CEM) of 4010 nM and a GI50 [5] of 1820 nM. The GI50 (NCI-H322M) was 1760 nM, the GI50 [6] was 3100 nM and the GI50 (IGROV-1) was 2200 nM. It also gave a GI50 (NCI-H23) of 1350 nM, a GI50 [7] of 1450 nM and a GI50 (MCF7 [8]) of 1140 nM. It also gave a GI50 (SK-MEL-5) of 1520 nM, a GI50 (CAKI-1) of 1580 nM and a GI50 [9] of 1750 nM. For the same molecule, the GI50 (HL-60(TB)) was 2520 nM, the GI50 [10] was 1880 nM and the GI50 (TK-10) was 2880 nM. For the same molecule, the GI50 (ACHN) was 1570 nM, the GI50 [11] was 1610 nM and the inhibition (MCF7 [12]) was “Active”. It also gave a GI50 [13] of 2720 nM, a GI50 [14] of 1380 nM and an Activity (MCF7 [15]) of 8.43%. The GI50 (SK-MEL-2) was 1870 nM, the GI50 (DU-145) was 2550 nM and the GI50 (SF-268) was 2360 nM. The GI50 (PC-3) was 4320 nM, the GI50 (U-251) was 1290 nM and the GI50 (COLO 205) was 1700 nM. The GI50 [16] was 2390 nM, the GI50 (HOP-62) was 2830 nM and the GI50 [17] was 1360 nM. For the same molecule, the GI50 (A549) was 2710 nM, the Activity (MCF7 [18]) was 1.53% and the GI50 [19] was 510 nM. The GI50 (SW-620) was 1750 nM, the GI50 (NCI-H460) was 1430 nM and the GI50 (SK-OV-3) was 2500 nM. For the same molecule, the GI50 [20] was 1430 nM, the GI50 (SNB-75) was 1890 nM and the GI50 (HCT-116) was 1170 nM. For the same molecule, the GI50 (786-0) was 1840 nM, the GI50 (A498) was 2130 nM and the GI50 [21] was 2910 nM. For the same molecule, the Activity (MCF7 [22]) was 90.04%, the GI50 (SK-MEL-28) was 1650 nM and the GI50 [23] was 1910 nM. It also gave a GI50 (SN12C) of 2560 nM, a GI50 (NCI-H522) of 1660 nM and a GI50 [24] of 1560 nM. For the same molecule, the GI50 (MDA-MB-231) was 2730 nM.

— ChEMBL document CHEMBL3217491, “Design, synthesis and biological evaluation of imidazopyridine/pyrimidine-chalcone derivatives as potential anticancer agents” (2010)
